In brackets after ≈: the same amount, converted by molar mass. Like-named read-outs stand apart in the source and are kept apart here.
What was measured:
PA-009, blaGES = assay: MIC / checkerboard with ATM; type: cell-based, P. aeruginosa; design: key to Susceptibility category: S: susceptible; I: intermediate; R: resistant
PA-035, blaGES = assay: MIC / checkerboard with ATM; type: cell-based, P. aeruginosa; design: key to Susceptibility category: S: susceptible; I: intermediate; R: resistant; conditions: for MIC: Pseudomonas aeruginosa
PA-002, blaIMP [1] = assay: MIC / checkerboard with ATM; type: cell-based, P. aeruginosa; design: key to Susceptibility category: S: susceptible; I: intermediate; R: resistant; conditions: for MIC: Pseudomonas aeruginosa
PA-021, blaIMP = assay: MIC / checkerboard with ATM; type: cell-based, P. aeruginosa; design: key to Susceptibility category: S: susceptible; I: intermediate; R: resistant; conditions: for MIC: Pseudomonas aeruginosa
PA-031, blaNDM = assay: MIC / checkerboard with ATM; type: cell-based, P. aeruginosa; design: key to Susceptibility category: S: susceptible; I: intermediate; R: resistant; conditions: for MIC: Pseudomonas aeruginosa
PA-033, blaNDM = assay: MIC / checkerboard with ATM; type: cell-based, P. aeruginosa; design: key to Susceptibility category: S: susceptible; I: intermediate; R: resistant; conditions: for MIC: Pseudomonas aeruginosa
PA-036, blaNDM = assay: MIC / checkerboard with ATM; type: cell-based, P. aeruginosa; design: key to Susceptibility category: S: susceptible; I: intermediate; R: resistant; conditions: PA-036
PA-040, blaNDM = assay: MIC / checkerboard with ATM; type: cell-based, P. aeruginosa; design: key to Susceptibility category: S: susceptible; I: intermediate; R: resistant; conditions: for MIC: Pseudomonas aeruginosa
[2] = tested on: ATM-Susceptible CPPA (n = 11); assay: MIC distribution over clinical isolates; type: cell-based, P. aeruginosa; conditions: Pseudomonas aeruginosa
[3] = tested on: wild-type P. aeruginosa (ATCC 27853); assay: Time–kill assay; type: cell-based; conditions: 24 h
Experimental: (§1) Aliquots (50 μL) were taken from the incubation mixture at regular time intervals (t = 0, 3, 6, and 24 h), serially diluted in 0.85% NaCl solution, and plated on BAP. Bacterial colonies were counted, and the data are presented as the means of at least three independent experiments.

PA-002, blaIMP [4] = assay: Time–kill assay; type: cell-based, P. aeruginosa; conditions: 24 h
Experimental: as §1

PA-003, blaVIM = assay: Time–kill assay; type: cell-based, P. aeruginosa; conditions: 24 h
Experimental: as §1

PA-014, blaGES = assay: Time–kill assay; type: cell-based, P. aeruginosa; conditions: 24 h
Experimental: as §1

PA-017, blaNDM = assay: Time–kill assay; type: cell-based, P. aeruginosa; conditions: 24 h
Experimental: as §1

C[C@H]1[C@H](NC(=O)/C(=N\OC(C)(C)C(=O)O)c2csc(N)n2)C(=O)N1S(=O)(=O)O [ATM, aztreonam]
Susceptibility to ATM (PA-009, blaGES; PA-009, ATM alone): R (R (resistant, MIC ≥ 32 mg/L))
Susceptibility category (PA-009, blaGES; PA-009, Table S2): R
MIC (PA-009, blaGES; Pseudomonas aeruginosa, read-out: MIC of ATM, PA-009, ATM alone (5 at 0 mg/L)): 32 µg/mL
Susceptibility to ATM (PA-035, blaGES; PA-035, ATM alone): S (S (sensitive, MIC ≤ 8 mg/L))
Susceptibility category (PA-035, blaGES; PA-035, Table S2): S
MIC (PA-035, blaGES; PA-035, Table S2, read-out: MIC value): 8 µg/mL
MIC (PA-035, blaGES; read-out: MIC of ATM, PA-035, ATM alone (5 at 0 mg/L)): 8 µg/mL
Susceptibility to ATM (PA-002, blaIMP [1]; PA-002, ATM alone): R (R (resistant, MIC ≥ 32 mg/L))
Susceptibility category (PA-002, blaIMP [1]; PA-002, Table S2): R
MIC (PA-002, blaIMP [1]; PA-002, Table S2, read-out: MIC value): 32 µg/mL
MIC (PA-002, blaIMP [1]; read-out: MIC of ATM, PA-002, ATM alone (5 at 0 mg/L)): 32 µg/mL
Susceptibility to ATM (PA-021, blaIMP; PA-021, ATM alone): S (S (sensitive, MIC ≤ 8 mg/L))
Susceptibility category (PA-021, blaIMP; PA-021, Table S2): S
MIC (PA-021, blaIMP; PA-021, Table S2, read-out: MIC value): 1 µg/mL
MIC (PA-021, blaIMP; read-out: MIC of ATM, PA-021, ATM alone (5 at 0 mg/L)): 1 µg/mL
Susceptibility to ATM (PA-031, blaNDM; PA-031, ATM alone): S (S (sensitive, MIC ≤ 8 mg/L))
Susceptibility category (PA-031, blaNDM; PA-031, Table S2): S
MIC (PA-031, blaNDM; PA-031, Table S2, read-out: MIC value): 8 µg/mL
MIC (PA-031, blaNDM; read-out: MIC of ATM, PA-031, ATM alone (5 at 0 mg/L)): 4 µg/mL
Susceptibility to ATM (PA-033, blaNDM; PA-033, ATM alone): S (S (sensitive, MIC ≤ 8 mg/L))
Susceptibility category (PA-033, blaNDM; PA-033, Table S2): S
MIC (PA-033, blaNDM; PA-033, Table S2, read-out: MIC value): 2 µg/mL
MIC (PA-033, blaNDM; read-out: MIC of ATM, PA-033, ATM alone (5 at 0 mg/L)): 2 µg/mL
Susceptibility to ATM (PA-036, blaNDM; ATM alone): I (I (intermediate, MIC = 16 mg/L))
Susceptibility category (PA-036, blaNDM; Table S2): I
Susceptibility to ATM (PA-040, blaNDM; PA-040, ATM alone): S (S (sensitive, MIC ≤ 8 mg/L))
Susceptibility category (PA-040, blaNDM; PA-040, Table S2): S
MIC (PA-040, blaNDM; PA-040, Table S2, read-out: MIC value): 4 µg/mL
MIC (PA-040, blaNDM; read-out: MIC of ATM, PA-040, ATM alone (5 at 0 mg/L)): 4 µg/mL
MIC50 ([2]; read-out: MIC50 of ATM, 5 at 0 mg/L): 4 µg/mL (≈ 9.19 µM)
MIC90 ([2]; read-out: MIC90 of ATM, 5 at 0 mg/L): 8 µg/mL (≈ 18.4 µM)
Log CFU/mL, ATM only ([3]; ATM 1/2 MIC): 9.31 Log CFU/mL
Log CFU/mL, ATM only ([3]; ATM 1/4 MIC): 9.57 Log CFU/mL
Log CFU/mL, ATM only ([3]; ATM 1 MIC): 8.02 Log CFU/mL
Log CFU/mL, ATM only ([3]; ATM 2 MIC): 0.17 Log CFU/mL
Log CFU/mL, ATM only (PA-002, blaIMP [4]; ATM 1/2 MIC): 9.02 Log CFU/mL
Log CFU/mL, ATM only (PA-002, blaIMP [4]; ATM 1/4 MIC): 9.48 Log CFU/mL
Log CFU/mL, ATM only (PA-002, blaIMP [4]; ATM 1 MIC): 8.15 Log CFU/mL
Log CFU/mL, ATM only (PA-002, blaIMP [4]; ATM 2 MIC): 5.50 Log CFU/mL
Log CFU/mL, ATM only (PA-003, blaVIM; ATM 1/2 MIC): 9.88 Log CFU/mL
Log CFU/mL, ATM only (PA-003, blaVIM; ATM 1/4 MIC): 10.18 Log CFU/mL
Log CFU/mL, ATM only (PA-003, blaVIM; ATM 1 MIC): 9.13 Log CFU/mL
Log CFU/mL, ATM only (PA-003, blaVIM; ATM 2 MIC): 6.40 Log CFU/mL
Log CFU/mL, ATM only (PA-014, blaGES; ATM 1/2 MIC): 8.83 Log CFU/mL
Log CFU/mL, ATM only (PA-014, blaGES; ATM 1/4 MIC): 9.33 Log CFU/mL
Log CFU/mL, ATM only (PA-014, blaGES; ATM 1 MIC): 7.68 Log CFU/mL
Log CFU/mL, ATM only (PA-014, blaGES; ATM 2 MIC): 2.45 Log CFU/mL
Log CFU/mL, ATM only (PA-017, blaNDM; ATM 1/2 MIC): 9.97 Log CFU/mL
Log CFU/mL, ATM only (PA-017, blaNDM; ATM 1/4 MIC): 10.74 Log CFU/mL
Log CFU/mL, ATM only (PA-017, blaNDM; ATM 1 MIC): 6.52 Log CFU/mL
Log CFU/mL, ATM only (PA-017, blaNDM; ATM 2 MIC): 0.12 Log CFU/mL
